Source: PubChem BioAssay AID330 (DTP/NCI, 2004)
Where “and” joins values, the source holds several entries; their conditions need not be identical. Equal entries are not always repeated. Toxic doses and inconclusive results are not listed. How the source made its calls: active means survival T/C of 150% or more; inactive means T/C below 125% in these data.

System: P388 leukemia ip, CD2F1 mice, survival T/C
Experiment: NCI In Vivo Anticancer Drug Screen. Data for tumor model P388 Leukemia (intraperitoneal) in CD2F1 (CDF1) mice
Conditions: endpoint: median survival time, higher = longer survival
In short: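 Mice carrying the transplanted tumor received test compound or vehicle. Survival was recorded in each group, and the value is the treated-group measurement divided by that of the vehicle-treated control group.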

[1] = dose: 60.0 mg/kg/injection, schedule: Q01DX005 (ip), vehicle: saline with Tween-80
[2] = dose: 120.0 mg/kg/injection, schedule: Q01DX005 (ip), vehicle: saline with Tween-80
[3] = dose: 240.0 mg/kg/injection, schedule: Q01DX005 (ip), vehicle: saline with Tween-80
[4] = dose: 50.0 mg/kg/injection, schedule: Q01DX005 (ip), vehicle: Klucel (hydroxypropylcellulose) (HPC)
[5] = dose: 100.0 mg/kg/injection, schedule: Q01DX005 (ip), vehicle: Klucel (hydroxypropylcellulose) (HPC)
[6] = dose: 50.0 mg/kg/injection, schedule: Q01DX009 (ip), vehicle: Klucel (hydroxypropylcellulose) (HPC)
[7] = dose: 100.0 mg/kg/injection, schedule: Q01DX009 (ip), vehicle: Klucel (hydroxypropylcellulose) (HPC)
[8] = dose: 200.0 mg/kg/injection, schedule: Q01DX009 (ip), vehicle: Klucel (hydroxypropylcellulose) (HPC)
[9] = dose: 60.0 mg/kg/injection, schedule: Q01DX005 (ip), vehicle: saline
[10] = dose: 50.0 mg/kg/injection, schedule: Q01DX009 (ip), vehicle: saline with Tween-80
[11] = dose: 100.0 mg/kg/injection, schedule: Q01DX009 (ip), vehicle: saline with Tween-80
[12] = dose: 200.0 mg/kg/injection, schedule: Q01DX009 (ip), vehicle: saline with Tween-80
[13] = dose: 1.25 mg/kg/injection, schedule: Q01DX009 (ip), vehicle: Klucel (hydroxypropylcellulose) (HPC)
[14] = dose: 12.5 mg/kg/injection, schedule: Q01DX009 (ip), vehicle: Klucel (hydroxypropylcellulose) (HPC)
[15] = dose: 25.0 mg/kg/injection, schedule: Q01DX009 (ip), vehicle: Klucel (hydroxypropylcellulose) (HPC)

Measured: T/C

CC1C=CC(c2ccccc2)C2C(=O)OC(=O)C12 (stereo unspecified)
inactive: [1] 116 % of control | [2] 114 % of control

COc1ccc(S(=O)(=O)F)cc1C(=O)O
inactive: [1] 114 % of control | [2] 112 % of control | [3] 104 % of control

CCOc1ccc(/C=N/NS(=O)(=O)c2ccccc2)cc1OC
inactive: dose: 100.0 mg/kg/injection, schedule: Q04DX003 (ip), vehicle: saline with Tween-80 100 % of control | dose: 200.0 mg/kg/injection, schedule: Q04DX003 (ip), vehicle: saline with Tween-80 95 % of control | dose: 400.0 mg/kg/injection, schedule: Q04DX003 (ip), vehicle: saline with Tween-80 100 % of control

CN(C)CCOc1cnc2ccc(Cl)cc2n1
inactive: [4] 88 % of control | [5] 88 % of control

CC(=O)OCc1c(COC(C)=O)c(C(F)(F)F)n2c1CCC2
inactive: [6] 90 % of control | [7] 93 % of control | [8] 104 % of control

C[N+]1(Cc2ccccc2)C2CCC(O)C1CC2 (stereo unspecified)
inactive: dose: 15.0 mg/kg/injection, schedule: Q01DX005 (ip), vehicle: saline 103 % of control | dose: 30.0 mg/kg/injection, schedule: Q01DX005 (ip), vehicle: saline 100 % of control | [9] 102 % of control

O=C(NC1c2ccccc2Oc2ccccc21)OC1CCCCC1
inactive: dose: 50.0 mg/kg/injection, schedule: Q01DX005 (ip), vehicle: saline with Tween-80 92 % of control | dose: 100.0 mg/kg/injection, schedule: Q01DX005 (ip), vehicle: saline with Tween-80 96 % of control | dose: 200.0 mg/kg/injection, schedule: Q01DX005 (ip), vehicle: saline with Tween-80 100 % of control

COc1ccccc1C(=O)C(CN(C)C)CN(C)C
inactive: dose: 1.87 mg/kg/injection, schedule: Q01DX005 (ip), vehicle: saline 105 % of control | dose: 3.75 mg/kg/injection, schedule: Q01DX005 (ip), vehicle: saline 108 % of control | dose: 7.5 mg/kg/injection, schedule: Q01DX005 (ip), vehicle: saline 112 % of control | [9] 112 % of control

O=NN(C(=O)NCCCl)c1[nH]c(=O)ncc1Cl
inactive: dose: 25.0 mg/kg/injection, schedule: Q01DX005 (ip), vehicle: Klucel (hydroxypropylcellulose) (HPC) 97 % of control | [4] 100 % of control | [5] 108 % of control

O=C(N=Cc1ccco1)C(=O)Nc1ccc(Cl)c([N+](=O)[O-])c1
inactive: [10] 100 % of control | [11] 91 % of control | [12] 96 % of control

O=C(CO)C(OC1OC(CO)C(O)C(O)C1O)C(O)C(O)CO (stereo unspecified)
inactive: dose: 50.0 mg/kg/injection, schedule: Q01DX005 (ip), vehicle: saline 109 % of control | dose: 100.0 mg/kg/injection, schedule: Q01DX005 (ip), vehicle: saline 97 % of control | dose: 200.0 mg/kg/injection, schedule: Q01DX005 (ip), vehicle: saline 109 % of control

O=c1[nH]c(=O)n(C(c2ccccc2)c2ccccc2)cc1F
inactive: dose: 12.5 mg/kg/injection, schedule: Q01DX009 (ip), vehicle: suspension in saline 100 % of control | dose: 25.0 mg/kg/injection, schedule: Q01DX009 (ip), vehicle: suspension in saline 89 % of control | dose: 50.0 mg/kg/injection, schedule: Q01DX009 (ip), vehicle: suspension in saline 99 % of control | dose: 75.0 mg/kg/injection, schedule: Q01DX009 (ip), vehicle: suspension in saline 101 % of control | dose: 100.0 mg/kg/injection, schedule: Q01DX009 (ip), vehicle: suspension in saline 94 % of control | dose: 150.0 mg/kg/injection, schedule: Q01DX009 (ip), vehicle: suspension in saline 90 % of control

c1ccc(C(c2ccccc2)[P+](c2ccccc2)(c2ccccc2)c2ccccc2)cc1
inactive: dose: 0.15 mg/kg/injection, schedule: Q01DX009 (ip), vehicle: Klucel (hydroxypropylcellulose) (HPC) 101 % of control | dose: 0.31 mg/kg/injection, schedule: Q01DX009 (ip), vehicle: Klucel (hydroxypropylcellulose) (HPC) 109 % of control and 114 % of control | dose: 0.63 mg/kg/injection, schedule: Q01DX009 (ip), vehicle: Klucel (hydroxypropylcellulose) (HPC) 111 % of control | [13] 118 % of control and 123 % of control and 86 % of control

CCOC(=O)NC(=N/C(=C/c1cccc(C)n1)c1ccccc1)c1ccccc1
inactive: dose: 60.0 mg/kg/injection, schedule: Q01DX005 (ip), vehicle: Klucel (hydroxypropylcellulose) (HPC) 93 % of control | dose: 120.0 mg/kg/injection, schedule: Q01DX005 (ip), vehicle: Klucel (hydroxypropylcellulose) (HPC) 91 % of control

Cc1c(NC(=S)Nc2c(C(C)C)cccc2C(C)C)c(=O)n(-c2ccccc2)n1C
inactive: [6] 113 % of control | [7] 106 % of control | [8] 106 % of control

CCCCC/C=C/C/C=C\CCCCCCCC(=O)NC(Cc1ccc(C)cc1)c1ccccc1 (stereo unspecified)
inactive: [10] 98 % of control | [11] 100 % of control | [12] 100 % of control

N#CC12C3C4C5C3C1C(C42)n1c(=O)n(-c2ccccc2)c(=O)n15 (stereo unspecified)
inactive: [14] 89 % of control and 90 % of control | [15] 89 % of control and 92 % of control | [6] 90 % of control and 95 % of control | [7] 98 % of control | [8] 95 % of control

CO/N=C/c1ccccc1C(=O)O
inactive: [4] 100 % of control | [5] 95 % of control | dose: 200.0 mg/kg/injection, schedule: Q01DX005 (ip), vehicle: Klucel (hydroxypropylcellulose) (HPC) 99 % of control

O=c1cnn(C2OC(CO)C(O)C2O)c(=O)[nH]1 (stereo unspecified)
inactive: [14] 118 % of control and 120 % of control | [15] 109 % of control and 110 % of control

COc1cc(N2C(=O)CSC2=S)cc(OC)c1OC
inactive: [6] 100 % of control | [7] 89 % of control | [8] 101 % of control

CC(=O)C(O)N1C(=O)C=CC1=O (stereo unspecified)
inactive: dose: 2.5 mg/kg/injection, schedule: Q01DX009 (ip), vehicle: saline with Tween-80 86 % of control | dose: 2.5 mg/kg/injection, schedule: Q04DX003 (ip), vehicle: saline 100 % of control | dose: 5.0 mg/kg/injection, schedule: Q04DX003 (ip), vehicle: saline 95 % of control | dose: 10.0 mg/kg/injection, schedule: Q04DX003 (ip), vehicle: saline 100 % of control

Nc1ncnc2c1c(-c1ccc(Cl)cc1)cn2-c1ccc(I)cc1
inactive: [1] 100 % of control | [2] 102 % of control | [3] 88 % of control

C[N+](C)(C)CCCO
inactive: dose: 12.5 mg/kg/injection, schedule: Q01DX009 (ip), vehicle: saline 98 % of control | dose: 25.0 mg/kg/injection, schedule: Q01DX009 (ip), vehicle: saline 94 % of control | dose: 50.0 mg/kg/injection, schedule: Q01DX009 (ip), vehicle: saline 93 % of control

O=C1C2C3C=CC(C2C(=O)N1COP(=O)(OCc1ccccc1)OCc1ccccc1)C1C2C(=O)N(COP(=O)(OCc4ccccc4)OCc4ccccc4)C(=O)C2C31 (stereo unspecified)
inactive: dose: 6.25 mg/kg/injection, schedule: Q01DX009 (ip), vehicle: saline + Tween-80 + alcohol 99 % of control | dose: 12.5 mg/kg/injection, schedule: Q01DX009 (ip), vehicle: saline + Tween-80 + alcohol 105 % of control | dose: 25.0 mg/kg/injection, schedule: Q01DX009 (ip), vehicle: saline + Tween-80 + alcohol 103 % of control | dose: 50.0 mg/kg/injection, schedule: Q01DX009 (ip), vehicle: saline + Tween-80 + alcohol 106 % of control | dose: 75.0 mg/kg/injection, schedule: Q01DX008 (ip), vehicle: saline + Tween-80 + alcohol 109 % of control | dose: 100.0 mg/kg/injection, schedule: Q01DX009 (ip), vehicle: saline + Tween-80 + alcohol 107 % of control | dose: 150.0 mg/kg/injection, schedule: Q01DX008 (ip), vehicle: saline + Tween-80 + alcohol 99 % of control | dose: 300.0 mg/kg/injection, schedule: Q01DX008 (ip), vehicle: saline + Tween-80 + alcohol 100 % of control

CC(C)(Cc1ccccc1)C(=C=C=C=C(c1ccccc1)C(C)(C)Cc1ccccc1)c1ccccc1
inactive: [15] 101 % of control | [6] 99 % of control | [7] 92 % of control

C/C=C1/C(=O)O[C@]23C=C[C@@H]4C(C(=O)OC)=CO[C@H](O[C@@H]12)[C@@H]43
inactive: [13] 96 % of control | dose: 2.5 mg/kg/injection, schedule: Q01DX009 (ip), vehicle: Klucel (hydroxypropylcellulose) (HPC) 98 % of control | dose: 5.0 mg/kg/injection, schedule: Q01DX009 (ip), vehicle: Klucel (hydroxypropylcellulose) (HPC) 102 % of control | dose: 10.0 mg/kg/injection, schedule: Q01DX009 (ip), vehicle: Klucel (hydroxypropylcellulose) (HPC) 109 % of control

COc1ccc(C(=O)c2cccnc2C(=O)O)cc1
inactive: [10] 105 % of control | [11] 107 % of control | [12] 107 % of control
